Among the data in ChEMBL document CHEMBL5257052, “Aromatic Polyketides from the Mangrove-Derived Streptomyces sp. SCSIO 40069” (2023) are MIC values, retold here.

One may read the MIC as the lowest concentration found to suppress growth. Lower therefore signals greater potency.

Structures are written as SMILES. Values after ≈ are worked out from the molar mass of the structure shown. Bounds are passed on as bounds.

Type in all cases: functional
One assay deals with Acinetobacter baumannii. Briefly: Antibacterial activity against Acinetobacter baumannii ATCC 19606 measured after 16 hrs by broth microdilution method.
In another assay the test system is Vibrio alginolyticus. Briefly: Antibacterial activity against Vibrio alginolyticus 13214 measured after 16 hrs by broth microdilution method. Background: Broth dilution looks for growth in wells or tubes with falling amounts of substance.
In another assay the test system is Staphylococcus aureus. Briefly: Antibacterial activity against Staphylococcus aureus ATCC 29213 measured after 16 hrs by broth microdilution method.
The test system of another assay is Klebsiella pneumoniae. Description: Antibacterial activity against Klebsiella pneumoniae ATCC 13883 measured after 16 hrs by broth microdilution method.
The subject of another assay is Micrococcus luteus. Briefly: Antibacterial activity against Micrococcus luteus SCSIO ML01 measured after 16 hrs by broth microdilution method.

On to `CC(=O)c1c(O)cc2c3c(cccc13)C=C([C@@H](O)[C@@H](C)O)O2`, for which the MIC in the assay on Acinetobacter baumannii, in the assay on Vibrio alginolyticus, with Staphylococcus aureus, in the assay with Klebsiella pneumoniae and in the assay with Micrococcus luteus was above 64 µg/mL in each case.
In the case of `CC(=O)c1c(O)cc2c3c(cccc13)C=C([C@H](O)[C@@H](C)O)O2`, the minimum inhibitory concentration (MIC) in the assay with Acinetobacter baumannii was 32 µg/mL (≈ 107 µM); against Vibrio alginolyticus it was 64 µg/mL (≈ 213 µM); against Staphylococcus aureus it was above 64 µg/mL; against Klebsiella pneumoniae, 16 µg/mL (≈ 53.3 µM); with Micrococcus luteus, above 64 µg/mL.
For the compound `CC(=O)c1c(O)cc2c3c(cccc13)C=C(CO)O2`, the MIC was 64 µg/mL (≈ 250 µM) in the assay with Acinetobacter baumannii; above 64 µg/mL against Vibrio alginolyticus; 8 µg/mL (≈ 31.2 µM) in the assay with Staphylococcus aureus; 64 µg/mL (≈ 250 µM) against Klebsiella pneumoniae; 8 µg/mL (≈ 31.2 µM) in the assay with Micrococcus luteus.
`CC(=O)CC1=Cc2cccc3c(C(C)=O)c(O)cc(c23)O1`: the MIC against Acinetobacter baumannii was above 64 µg/mL; in the assay on Vibrio alginolyticus, 32 µg/mL (≈ 113 µM); with Staphylococcus aureus, 8 µg/mL (≈ 28.3 µM); in the assay with Klebsiella pneumoniae it was 8 µg/mL (≈ 28.3 µM); in the assay with Micrococcus luteus, 8 µg/mL (≈ 28.3 µM).
Take `COc1cc(Cc2cnc(N)nc2N)cc(OC)c1OC` [TRIMETHOPRIM]: the minimum inhibitory concentration (MIC) was 0.125 µg/mL (≈ 0.431 µM) against Acinetobacter baumannii; 0.125 µg/mL (≈ 0.431 µM) in the assay on Vibrio alginolyticus; 2 µg/mL (≈ 6.89 µM) in the assay on Staphylococcus aureus; 0.125 µg/mL (≈ 0.431 µM) against Klebsiella pneumoniae; 2 µg/mL (≈ 6.89 µM) against Micrococcus luteus.
Take `CC(=O)c1c(O)cc2c3c(cccc13)C=C([C@@H](O)[C@H](C)O)O2`: the MIC against Acinetobacter baumannii, in the assay on Vibrio alginolyticus, with Staphylococcus aureus, in the assay with Klebsiella pneumoniae and against Micrococcus luteus was above 64 µg/mL each time.
As for `CC(=O)c1c(O)cc2c3c(cccc13)C=C(C)O2`, the MIC was above 64 µg/mL against Acinetobacter baumannii; 64 µg/mL (≈ 266 µM) in the assay on Vibrio alginolyticus; above 64 µg/mL in the assay with Staphylococcus aureus; above 64 µg/mL with Klebsiella pneumoniae; 64 µg/mL (≈ 266 µM) against Micrococcus luteus.
For `CC(=O)c1c(O)cc2c3c(cccc13)C=C([C@H](O)[C@H](C)O)O2`, the MIC in the assay with Acinetobacter baumannii, against Vibrio alginolyticus, in the assay with Staphylococcus aureus, with Klebsiella pneumoniae and against Micrococcus luteus was above 64 µg/mL each time.
With `CC(=O)c1c(O)cc2c3c(cccc13)C=C(C=O)O2`, the MIC with Acinetobacter baumannii is above 64 µg/mL; against Vibrio alginolyticus it was 32 µg/mL (≈ 126 µM); against Staphylococcus aureus, above 64 µg/mL; in the assay with Klebsiella pneumoniae, 32 µg/mL (≈ 126 µM); in the assay with Micrococcus luteus, 32 µg/mL (≈ 126 µM).
